For one assay, the system named is RSV strain A2. The experiment in a line: RSV Cellomics assay for RSV A2 antiviral activity (EC50-RSV-Hep2-96-Cellomics). The assay is classed as cell-based. Particulars: human respiratory syncytial virus, HEp-2, 72 h; Hep2 cells, RSV strain A2, MOI=0.05, 3 days, RSV F protein immunofluorescence; read-out: EC50-RSV-HEp2-96-Cellomics Example B1. The procedure:
Example B1: RSV Cellomics Assay for RSV A2 Antiviral Activity (EC50-RSV-Hep2-96-Cellomics)
8×10^3 Hep2 cells are seeded into 96 well plates in 100 μL of media (DMEM supplemented with GlutaMAX, 10% FBS and Pen/Strep) and briefly spun at 50×g for 1 minute to attach cells. Cells were further allowed to attach with overnight incubation at 37° C.+5% CO2. The following day, the media was aspirated and 100 μL of fresh DMEM media containing 2% FBS was added. A three-fold dilution series of compounds of interest are then added to the plate using the Tecan D300e dispenser and the plate is normalized to the well with the highest volume of DMSO. The cells are next infected by adding 100 μL of media containing RSV strain A2 at an MOI=0.05 and the plates incubated for 3 days at 37° C.+5% CO2. Following the incubation, the media is removed, and the cells are washed once with 250 μL PBS and fixed with 250 μL ice-cold 100% methanol for 10 minutes at 4 C. The methanol is then removed and the plates air dried for 5 minutes and then washed once with 250 μL PBS to remove any residual methanol. The wells are then blocked 60 μL/well of BlockAid (B10710, Thermo-Fisher) for 1 hour at RT on rocker at which point the blocking buffer is carefully aspirated. Primary antibody against the RSV F protein (MAB 858-1) is then diluted 1:2000 in SuperBlock (37515, Thermo Fisher) and 50 μL of the primary antibody solution is added to each well. The plates are incubated at room temperature for 1 hour with gentle agitation and then washed with 250 μL of PBS-Tween 3 times. A goat anti-mouse AlexaFluor 647 conjugated secondary antibody (Sigma, A21235) is then diluted 1:2000 and Hoescht 33342 (H3570) at 1:1000 in SuperBlock and 50 μL added to the wells for 1 hour at 37° C. After incubation the antibody solution is aspirated, and the wells are then washed with 250 μL of PBS-Tween 3 times. To keep cells from drying out, 100 μL of PBS is added to each well and the plates are sealed with black plate seal. Fluorescence at the 647 nm wavelength is measured using a Cellomics CellInsight CX7 machine. Compound activity is determined as a percentage of the % positive cells (or average intensity) compared to DMSO treated RSV infected well controls following subtraction of uninfected controls. The EC50 values are then calculated using nonlinear regression analysis in GraphPad Prism.

For assay [1], the system named is Respiratory syncytial virus recombinant with luciferase (RSV-Luc5). The experiment in a line: NHBE RSV-Luc5 384-well assay (EC50 RSVFLUC NHBE-384). The assay is classed as cell-based. Particulars: human respiratory syncytial virus, 72 h, read-out: EC50 RSV FLUC NHBE 384 V2 (per Ex. U). An excerpt:
Example U. NHBE RSV-Luc5 384-Well Assay (EC50 RSVFLUC NHBE-384)
Normal Human Bronchial Epithelial (NHBE) cells were purchased from Lonza (Walkersville, MD Cat #CC2540) and maintained in BEGM Bronchial Epithelial Cell Growth Medium BulletKit (Lonza CC-3170).
Cells were thawed, expanded, and were used for experiments at passage 2. Respiratory syncytial virus recombinant with luciferase (RSV-Luc5) (≥1×107 Infectious Units/ml (IU/ml) determined by TCID50) was purchased from Microbiologics (Saint Cloud, MN). Viral replication was determined in NHBE cells in the following manner.
Compounds are prepared in 100% DMSO in 384-well polypropylene plates (Greiner, Monroe, NC, Cat #784201) with 8 compounds per plate in grouped replicates of 4 at 10 serially diluted concentrations (1:3). The serially diluted compounds were transferred to low dead volume Echo plates (Labcyte, Sunnyvale, CA, Cat #LP-0200).
The test compounds were spotted to 384-well assay plates (Greiner, Monroe, NC, Cat #781091) at 200 nL per well. NHBE cells were harvested and suspended in BEGM Bronchial Epithelial Cell Growth Medium BulletKit and seeded to the pre-spotted assay plates at 5,000 cells per well in 30 μL. RSV-Luc5 virus was diluted in BEGM Bronchial Epithelial Cell Growth Medium BulletKit at 500,000 Infectious Units (IU) per mL and 10 μL per well was added to the assay plates containing cells and compounds, for an MOI of 1. The assay plates were incubated for 3 days at 37° C. and 5% CO2. At the end of incubation, One-Glo reagent (Promega, Madison, WI, Cat #E6120) was prepared. The assay plates and One-Glo reagent were equilibrated to room temperature for at least 15 minutes. 40 μL per well of One-Glo reagent was added and the plates were incubated at room temperature for 15 minutes before reading the luminescence signal on an En Vision multimode plate reader (Perkin Elmer, Waltham, MA). Remdesivir was used as positive control and DMSO was used as negative control. Values were normalized to the positive and negative controls (as 0% and 100% replication, respectively) and data was fitted using non-linear regression analysis by Gilead's dose response tool. The EC50 value for each compound was defined as the concentration reducing the viral replication by 50%.

The results in this text go back to patent US20240309028A1, “PHOSPHOLIPID COMPOUNDS AND METHODS OF MAKING AND USING THE SAME” (Gilead Sciences, Inc., priority 2023, published 2024).

For `N#Cc1cc(F)cc(CO[C@@H](CCCCCCCCCCCCCCCCCC(F)(F)F)COP(=O)(O)OC[C@@]2(C#N)O[C@@H](c3ccc4c(N)ncnn34)[C@H](O)[C@@H]2O)c1` [Compound 3, ((2R,3S,4R,5S)-5-(4-aminopyrrolo[2,1-f][1,2,4]triazin-7-yl)-2-cyano-3,4-dihydroxytetrahydrofuran-2-yl)methyl ((S)-2-((3-cyano-5-fluorobenzyl)oxy)-20,20,20-trifluoroicosyl) hydrogen phosphate], the EC50 in the assay with RSV strain A2 came to 421 nM; in assay [1], 44 nM.
Taken in the same sequence, the figures for `N#Cc1cc(F)cc(CO[C@H](CCCCCCCCCCCCCCCCC(F)F)COP(=O)(O)OC[C@@]2(C#N)O[C@@H](c3ccc4c(N)ncnn34)[C@H](O)[C@@H]2O)c1` [Compound 4, ((2R,3S,4R,5S)-5-(4-aminopyrrolo[2,1-f][1,2,4]triazin-7-yl)-2-cyano-3,4-dihydroxytetrahydrofuran-2-yl)methyl ((R)-2-((3-cyano-5-fluorobenzyl)oxy)-19,19-difluorononadecyl) hydrogen phosphate] were 170 nM and 107 nM.
Taken in the same sequence, the figures for `N#C[C@]1(COP(=O)(O)OCCCCCCCCCCCCCCCCCCCC(F)(F)F)O[C@@H](c2ccc3c(N)ncnn23)[C@H](O)[C@@H]1O` [Compound 5, ((2R,3S,4R,5S)-5-(4-aminopyrrolo[2,1-f][1,2,4]triazin-7-yl)-2-cyano-3,4-dihydroxytetrahydrofuran-2-yl)methyl (20,20,20-trifluoroicosyl) hydrogen phosphate] were 3420 nM and 4460 nM.
Taken in the same sequence, the figures for `N#Cc1cc(F)cc(CO[C@@H](CCCCCCCCCCCCCCCCC(F)(F)F)COP(=O)(O)OC[C@@]2(C#N)O[C@@H](c3ccc4c(N)ncnn34)[C@H](O)[C@@H]2O)c1` [Compound 6, ((2R,3S,4R,5S)-5-(4-aminopyrrolo[2,1-f][1,2,4]triazin-7-yl)-2-cyano-3,4-dihydroxytetrahydrofuran-2-yl)methyl ((S)-2-((3-cyano-5-fluorobenzyl)oxy)-19,19,19-trifluorononadecyl) hydrogen phosphate] were 293 nM and 86 nM.
In the case of `N#C[C@]1(COP(=O)(O)OC[C@H](CCCCCCCCCCCCCCCCCC(F)(F)F)OCc2ccc3ccccc3n2)O[C@@H](c2ccc3c(N)ncnn23)[C@H](O)[C@@H]1O` [Compound 7, ((2R,3S,4R,5S)-5-(4-aminopyrrolo[2,1-f][1,2,4]triazin-7-yl)-2-cyano-3,4-dihydroxytetrahydrofuran-2-yl)methyl ((S)-20,20,20-trifluoro-2-(quinolin-2-ylmethoxy)icosyl) hydrogen phosphate], the EC50 came out at 1400 nM in the assay with RSV strain A2 and 714 nM in assay [1].
Taken in the same sequence, the figures for `N#Cc1cc(F)cc(CO[C@H](CCCCCCCCCCCCCCCCCCCC(F)(F)F)COP(=O)(O)OC[C@@]2(C#N)O[C@@H](c3ccc4c(N)ncnn34)[C@H](O)[C@@H]2O)c1` [Compound 8, ((2R,3S,4R,5S)-5-(4-aminopyrrolo[2,1-f][1,2,4]triazin-7-yl)-2-cyano-3,4-dihydroxytetrahydrofuran-2-yl)methyl ((R)-2-((3-cyano-5-fluorobenzyl)oxy)-22,22,22-trifluorodocosyl) hydrogen phosphate] were 237 nM and 134 nM.
Taken in the same sequence, the figures for `COc1cc(C#N)ccc1CO[C@@H](CCCCCCCCCCCCCCCCCC(F)(F)F)COP(=O)(O)OC[C@@]1(C#N)O[C@@H](c2ccc3c(N)ncnn23)[C@H](O)[C@@H]1O` [Compound 9, ((2R,3S,4R,5S)-5-(4-aminopyrrolo[2,1-f][1,2,4]triazin-7-yl)-2-cyano-3,4-dihydroxytetrahydrofuran-2-yl)methyl ((S)-2-((4-cyano-2-methoxybenzyl)oxy)-20,20,20-trifluoroicosyl) hydrogen phosphate] were 215 nM and 265 nM.
Taken in the same sequence, the figures for `N#Cc1cc(F)cc(CO[C@H](CCCCCCCCCCCCCCCCCC(F)(F)F)COP(=O)(O)OC[C@@]2(C#N)O[C@@H](c3ccc4c(N)ncnn34)[C@H](O)[C@@H]2O)c1` [Compound 10, ((2R,3S,4R,5S)-5-(4-aminopyrrolo[2,1-f][1,2,4]triazin-7-yl)-2-cyano-3,4-dihydroxytetrahydrofuran-2-yl)methyl ((R)-2-((3-cyano-5-fluorobenzyl)oxy)-20,20,20-trifluoroicosyl) hydrogen phosphate] were 127 nM and 117 nM.
With `CN(C)CCNc1cccc(CO[C@@H](CCCCCCCCCCCCCCCCCC(F)(F)F)COP(=O)(O)OC[C@@]2(C#N)O[C@@H](c3ccc4c(N)ncnn34)[C@H](O)[C@@H]2O)c1` [Compound 11, ((2R,3S,4R,5S)-5-(4-aminopyrrolo[2,1-f][1,2,4]triazin-7-yl)-2-cyano-3,4-dihydroxytetrahydrofuran-2-yl)methyl ((S)-2-((3-((2-(dimethylamino)ethyl)amino)benzyl)oxy)-20,20,20-trifluoroicosyl) hydrogen phosphate], the concentration for a half-maximal effect (EC50) with RSV strain A2 worked out at 12600 nM; in assay [1], 4590 nM.

What is called EC50 is the concentration needed to bring the measured effect to its halfway point.
